Key:
Solubility in water = type: physicochemical
Protocol: Hesperidin 2S has a very low solubility in water (less than 10 ppm). However, in presence of NaOH, its solubility increases. In order to study the component in liquid matrixes, a non-heated H2O—NaOH solution was prepared (Table 1).

[1] = Panel evaluation in tonic water; type: in vivo; settings: quinine salt 78 ppm
Protocol: NaOH:H2O solutions containing different concentrations (100 ppm and 200 ppm) of Hesperidin 2S were prepared as explained above (Table 1) and added to a tonic water samples prepared as indicated in Table 10 below:
A panel of experts was used to determine the reduction in unpleasant taste impression of the different samples.

[2] = Panel evaluation in plant-based burger containing oleuropeins; type: in vivo; settings: plant-based burger with 2000 ppm Olews 40%
Protocol: Reduction of unpleasant taste impression in a plant-based burger was evaluated using different concentrations of H2S (100 ppm and 200 ppm). Hesperidin 2S (dry powder) was incorporated into the preparations containing 2000 ppm Olews 40% provided by HealthTech Bio Actives, S.L.U. (Beniel, Spain) (2000 ppm Olews 40%=[…]) as indicated in Table 11 below:
A panel of experts was used to determine the reduction in unpleasant taste impressions of the plant-based burger preparations.

[3] = Panel evaluation in protein milkshake; type: in vivo; settings: 100 ppm or 200 ppm H2S
Protocol: NaOH:H2O solutions containing different concentrations (100 ppm and 200 ppm) of Hesperidin 2S were prepared as explained above (Table 1) and added to a protein milkshake prepared as indicated in Table 12 below.
The taste masking effect was assayed, following an analogous procedure to the one used in Example 1. A panel of experts was used to determine the reduction in unpleasant taste impressions of the protein milkshake preparations after addition of H2S.

[4] = Panel evaluation in orange juices containing oleuropeins; type: in vivo; settings: orange juice with 500 ppm Olews 40%
Protocol: NaOH:H2O solutions containing different concentrations (100 ppm and 200 ppm) of Hesperidin 2S were prepared as explained above (Table 1) and added to orange juices containing 500 ppm Olews 40% (500 ppm Olews 40%=160 ppm oleuropein). Olews 40% provided by HealthTech Bio Actives S.L.U. (Beniel, Spain).
The taste masking effect against oleuropeins was assayed following an analogous procedure to the one used in Example 1 for paracetamol.
For each tested solution, a test panel determined the equibitter oleuropein solution, and the masking effect was calculated as explained in Example 1. A panel of experts was used to determine the reduction in unpleasant taste impressions of the orange juice preparations containing oleuropeins after addition of H2S.

[5] = Panel evaluation in fresh squeezed orange juices; type: in vivo; settings: 100 ppm or 200 ppm H2S; fresh squeezed orange juice
Protocol: NaOH:H2O solutions containing different concentrations (100 ppm and 200 ppm) of Hesperidin 2S were prepared as explained above (Table 1) and added to fresh squeezed orange juices.
A panel of experts was used to determine the reduction in unpleasant tastes of the fresh squeezed orange juices after addition of different concentrations of H2S.

[6] = Panel evaluation in limonin solution (greening disease model); type: in vivo; settings: 200 ppm H2S in limonin 50 ppm solution
Protocol: In order to determine the reduction in unpleasant taste impressions (bitterness) by hesperidin in a greening disease model, a limonin solution was prepared as indicated in Table 6. This solution was used for testing. Limonin (99.66%) was purchased from TargetMol.
The effect of H2S (200 ppm) in a limonin solution (50 ppm) was evaluated. A panel of experts was used to determine the reduction in unpleasant taste impressions of the limonin-containing preparation.

[7] = Panel evaluation in crackers with reduced NaCl containing KCl; type: in vivo; settings: 200 ppm H2S
Protocol: A dosage of 200 ppm of H2S was added to crackers with reduced content of sodium chloride (NaCl) and containing potassium chloride (KCl; Panreac). The composition of the crackers is disclosed in Table 4 below:
The taste masking effect was assayed, following an analogous procedure to the one disclosed in Example 1. A panel of experts was used to determine the reduction in unpleasant taste impressions of the potassium chloride-containing preparations after addition of H2S.

[8] = Masking bitterness of paracetamol: test panel, equibitter paracetamol solution; type: in vivo
Protocol: The bitter masking effect of hesperidin against paracetamol was assayed. The anti-bittering effect was measured as a dose-response profile vs. a solution of paracetamol.
A calibrated test panel compared each solution with several solutions of paracetamol in water at different concentrations and determined the equibitter paracetamol solution. The equibitter solution was calculated as the average of all the evaluations of the panel.
The masking effect or percentage of bitterness reduction was then calculated from the reference amount of paracetamol contained in each tested solution (5000 ppm) and the amount of paracetamol in the equibitter solution, using the following formula: […]
Thus, for example, a solution containing 5000 ppm of paracetamol and 250 ppm of hesperidin was equibitter to a solution containing 4000 ppm of paracetamol. Therefore, the masking effect was 20%.
The bitter masking effect of a racemic hesperidin (57% hesperidin 2S: 43% hesperidin 2R; purchased by HealthTech Bio Actives, S.L.U. Beniel, Spain) against paracetamol was also assayed. The anti-bittering effect was measured as a dose-response profile vs. a solution of paracetamol as described above.
Further, the bitter masking effect of a different flavonoid compound, neodiosmin (purchased by HealthTech Bio Actives, S.L.U. Beniel, Spain), was also tested. The anti-bittering effect was measured as a dose-response profile vs. a solution of paracetamol as explained before.

[9] = Panel evaluation in greening affected orange juices; type: in vivo; settings: greening affected orange juice
Protocol: Orange Juice samples obtained from oranges from trees afflicted with greening disease were provided by F&M Solutions (Brasil). The juice samples were prepared by squeezing oranges collected from afflicted tree branches from local Brazilian farmers. The squeezed orange juice was bottled and pasteurized by standard methods well known in the art.
Different concentrations of Hesperidin 2S (100 ppm and 200 ppm) were evaluated in the orange juices from greening afflicted oranges.
A panel of experts was used to determine the reduction in unpleasant taste impressions of the different samples.

[10] = Panel evaluation in dark chocolate 95%; type: in vivo
Protocol: Reduction of unpleasant taste impressions in dark chocolate (95%) preparations was evaluated using different concentrations of H2S (100 ppm and 200 ppm).
Hesperidin 2S (dry powder) was incorporated into a sample of melted dark chocolate (95%). The liquid mass was cooled and mold, obtaining a solid chocolate.
A panel of experts was used to determine the reduction in unpleasant taste impressions of the dark chocolate (95%) preparations.

[11] = 10 ppm test substance in 5000 ppm paracetamol aqueous solution
[12] = 50 ppm test substance in 5000 ppm paracetamol aqueous solution
[13] = 100 ppm test substance in 5000 ppm paracetamol aqueous solution
[14] = 250 ppm test substance in 5000 ppm paracetamol aqueous solution
[15] = 250 ppm test substance in 5000 ppm paracetamol aqueous solution, listed as hesperidin
[16] = 500 ppm test substance in 5000 ppm paracetamol aqueous solution

Structure (SMILES): COc1ccc([C@@H]2CC(=O)c3c(O)cc(O[C@@H]4O[C@H](CO[C@@H]5O[C@@H](C)[C@H](O)[C@@H](O)[C@H]5O)[C@@H](O)[C@H](O)[C@H]4O)cc3O2)cc1O (racemic) [Hesperidin 2S, (2S)-5-hydroxy-2-(3-hydroxy-4-methoxyphenyl)-7-[(2S,3R,4S,5S,6R)-3,4,5-trihydroxy-6-{[(2R,3R,4R,5R,6S)-3,4,5-trihydroxy-6-methyloxan-2-yl]oxymethyl}oxan-2-yl]oxy-2,3-dihydrochromen-4-one]
- solubility in presence of NaOH (Solubility in water; in presence of NaOH): increases
- solubility in water (Solubility in water; water): less than 10 ppm
- bitterness ([1]; 100 ppm H2S): significant reduction
- bitterness ([1]; 200 ppm H2S): reduction
- bitterness ([2]; 100 ppm H2S): decrease
- flavonoid notes ([2]; 100 ppm H2S): not present
- woody off-flavor notes ([2]; 100 ppm H2S): reduced
- bitterness and bean notes ([2]; 200 ppm H2S): decreased
- flavonoid notes ([2]; 200 ppm H2S): not present
- woody off-flavor notes ([2]; 200 ppm H2S): reduced
- bitter taste [3]: reduced
- dry fava notes [3]: reduced
- orange notes ([4]; 200 ppm H2S (FIG. 1B)): enhanced
- woody and bitter taste coming from the oleuropein masked ([4]; 200 ppm H2S (FIG. 1B)): 40%
- woody and bitter taste ([4]; 200 ppm H2S as printed (FIG. 1A)): masked
- astringent and bitter taste [5]: clearly reduced
- % of bitterness reduction [6]: 30%
- Equibitter [6]: 35 ppm
- pungent and metallic notes ([7]; KCl-containing crackers): suppressed
- saltiness ([7]; crackers with reduced sodium chloride): increase
- % of bitterness reduction [8, 11]: 5%
- Equibitter paracetamol concentration [8, 11]: 4750 ppm
- % of bitterness reduction [8, 12]: 11%
- Equibitter paracetamol concentration [8, 12]: 4450 ppm
- % of bitterness reduction [8, 13]: 20%
- Equibitter paracetamol concentration [8, 13]: 4000 ppm
- % of bitterness reduction [8, 14]: 37%
- Equibitter paracetamol concentration [8, 14]: 3150 ppm
- % of bitterness reduction ([8]; 250 ppm test substance in 5000 ppm paracetamol aqueous solution, listed as H2S): 37%
- % of bitterness reduction [8, 15]: 20%
- Equibitter paracetamol concentration [8, 15]: 4000 ppm
- % of bitterness reduction ([8]; 250 ppm test substance in 5000 ppm paracetamol aqueous solution, listed as non-racemic hesperidin 2S): 37%
- bitterness, acidity and astringency ([9]; 100 ppm H2S): significant reduction
- flavonoid note ([9]; 100 ppm H2S): noticeable
- green orange notes and bitter aftertaste ([9]; 100 ppm H2S): Reduction
- overall orange notes ([9]; 100 ppm H2S): slight reduction
- flavonoid note ([9]; 200 ppm H2S): increased
- green orange notes and bitter aftertaste ([9]; 200 ppm H2S): reduction
- overall orange notes ([9]; 200 ppm H2S): reduction
- bitterness, acidity and astringency ([9]; 200 ppm H2S, to a lesser extent than 100 ppm): reduction
- bitterness and astringency ([10]; 200 ppm H2S): decreased
- flavonoid notes ([10]; 200 ppm H2S): not present
- bitterness ([10]; 200 ppm H2S as printed): decrease
- cocoa notes ([10]; 200 ppm H2S as printed): slightly enhanced

Structure (SMILES): COc1ccc([C@@H]2CC(=O)c3c(O)cc(O[C@@H]4O[C@H](CO[C@@H]5O[C@@H](C)[C@H](O)[C@@H](O)[C@H]5O)[C@@H](O)[C@H](O)[C@H]4O)cc3O2)cc1O (racemic) [Racemic Hesperidin, hesperidin]
- % of bitterness reduction [8, 11]: 4%
- Equibitter paracetamol concentration [8, 11]: 4800 ppm
- % of bitterness reduction [8, 12]: 6%
- Equibitter paracetamol concentration [8, 12]: 4700 ppm
- % of bitterness reduction [8, 13]: 13%
- Equibitter paracetamol concentration [8, 13]: 4350 ppm
- % of bitterness reduction [8, 14]: 18%
- Equibitter paracetamol concentration [8, 14]: 4100 ppm

Structure (SMILES): COc1ccc(-c2cc(=O)c3c(O)cc(O[C@@H]4O[C@H](CO)[C@@H](O)[C@H](O)[C@H]4O[C@@H]4O[C@@H](C)[C@H](O)[C@@H](O)[C@H]4O)cc3o2)cc1O [Neodiosmin, neodiosmin, reference compound]
- % of bitterness reduction [8, 12]: 12%
- Equibitter paracetamol concentration [8, 12]: 4400 ppm
- % of bitterness reduction [8, 13]: 12%
- Equibitter paracetamol concentration [8, 13]: 4400 ppm
- % of bitterness reduction [8, 14]: 16%
- Equibitter paracetamol concentration [8, 14]: 4200 ppm
- % of bitterness reduction [8, 16]: 24%
- Equibitter paracetamol concentration [8, 16]: 3800 ppm

From patent US20240148038A1, “TASTE-MASKING COMPOUNDS AND COMPOSITIONS AND USES THEREOF” (HEALTHTECH BIO ACTIVES, S.L.U., priority 2021, published 2024)
